This passage reports Kd results from publication PMC5852267, “Influence of quaternary cation compound on the size of the Escherichia coli small multidrug resistance protein, EmrE” (Biochemistry and Biophysics Reports, 2018).

For one assay, the target named is T1, EmrE (EmrE-Myc-His6; His6-myc-EmrE) (Escherichia coli, UniProt P23895).
T1 construct: plasmid pTZEmrEmH6; E. coli C43(DE3); dimer considered minimal functional unit
T1 sequence (P23895 whole entry): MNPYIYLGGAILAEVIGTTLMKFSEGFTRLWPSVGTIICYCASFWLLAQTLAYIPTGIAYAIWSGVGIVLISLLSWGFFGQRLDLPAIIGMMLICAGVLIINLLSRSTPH
Nature of the assay: biochemical. Format: binding.
Details: not given
On to `CN(C)c1ccc(C(=C2C=CC(=[N+](C)C)C=C2)c2ccc(N(C)C)cc2)cc1` [CV, Crystal Violet], for which binding was characterised by a dissociation constant (Kd) of 16 ± 5.7 µM.

As for `Nc1ccc2cc3ccc(N)cc3nc2c1` [PRO, Proflavine], the Kd (as a rule, the concentration at which binding is half-saturated) turned out to be 14 ± 5 µM.

As to `CCN=c1cc2oc3cc(NCC)c(C)cc3c(-c3ccccc3C(=O)OCC)c-2cc1C` [RH, Rhodamine 6 G], the affinity, expressed as Kd, was 12 ± 1.4 µM.

Take `Cc1cc(N)c2ccccc2[n+]1CCCCCCCCCC[n+]1c(C)cc(N)c2ccccc21` [DC, Dequalinium chloride]: the Kd amounted to 11 ± 2.2 µM.

As to `CC[n+]1c(-c2ccccc2)c2cc(N)ccc2c2ccc(N)cc21` [EB, Ethidium bromide], the Kd was found to be 1 ± 0.3 µM.

Still in this assay, the particulars now being: read-out: Kd.
Consider `C[n+]1ccc(-c2cc[n+](C)cc2)cc1` [MV, Methyl Viologen], for which the Kd worked out at 179 ± 19.9 µM.

`CCCCCCCCCCCCCCCC[N+](C)(C)Cc1ccccc1` [CTC, Cetalkonium chloride (Banjela) (16 Chain)]: the Kd is 407 ± 133 µM.

For `c1ccc([P+](c2ccccc2)(c2ccccc2)c2ccccc2)cc1` [TPP, Tetraphenylphosphonium chloride], the Kd stood at 5 ± 3.7 µM.
